Measurements taken from ChEMBL document CHEMBL1155320, “Semi-rigid tripeptide agonists of melanocortin receptors” (Bioorg Med Chem Lett, 2009).
Activity calls are given as the source filed them. The rule behind the calls is not given here.

How the values were obtained:
[1] = target: Melanocortin receptor 3 (Mus musculus) (UniProt P33033); assay: Agonistic activity against mouse MC3R at […]; format: functional
[2] = target: Melanocortin receptor 4 (Mus musculus) (UniProt P56450); assay: Agonistic activity against mouse MC4R at […]; format: functional
[3] = target: Melanocortin receptor 5 (Mus musculus) (UniProt P41149); assay: Agonistic activity against mouse MC5R at […]; format: functional
Mus musculus [4] = organism: Mus musculus; assay: Selectivity index, ratio of EC50 for mouse MCR5R to EC50 for mouse MC1R
Mus musculus [5] = organism: Mus musculus; assay: Selectivity index, ratio of EC50 for mouse MCR4R to EC50 for mouse MC1R
[6] = target: Melanocyte-stimulating hormone receptor (Mus musculus, UniProt Q01727); assay: Agonistic activity against mouse MC1R; format: functional
Melanocortin receptor 5 = Melanocortin receptor 5 (Mus musculus, UniProt P41149); assay: Agonistic activity against mouse MC5R; format: functional
Melanocortin receptor 4 = Melanocortin receptor 4 (Mus musculus, UniProt P56450); assay: Agonistic activity against mouse MC4R; format: functional
Sequence of Melanocortin receptor 4 (P56450 whole entry): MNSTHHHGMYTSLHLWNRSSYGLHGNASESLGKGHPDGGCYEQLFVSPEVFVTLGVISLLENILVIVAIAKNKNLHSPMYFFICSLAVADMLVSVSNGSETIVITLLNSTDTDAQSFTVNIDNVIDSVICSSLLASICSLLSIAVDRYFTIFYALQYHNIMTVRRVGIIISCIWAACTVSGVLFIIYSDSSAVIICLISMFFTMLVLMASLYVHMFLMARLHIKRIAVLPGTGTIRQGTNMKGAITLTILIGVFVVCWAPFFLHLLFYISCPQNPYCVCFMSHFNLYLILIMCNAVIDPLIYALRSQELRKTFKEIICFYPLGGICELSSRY

Sequence of Melanocortin receptor 4 (Mus musculus) (P56450 whole entry): as above
Sequence of Melanocortin receptor 3 (Mus musculus) (P33033 whole entry): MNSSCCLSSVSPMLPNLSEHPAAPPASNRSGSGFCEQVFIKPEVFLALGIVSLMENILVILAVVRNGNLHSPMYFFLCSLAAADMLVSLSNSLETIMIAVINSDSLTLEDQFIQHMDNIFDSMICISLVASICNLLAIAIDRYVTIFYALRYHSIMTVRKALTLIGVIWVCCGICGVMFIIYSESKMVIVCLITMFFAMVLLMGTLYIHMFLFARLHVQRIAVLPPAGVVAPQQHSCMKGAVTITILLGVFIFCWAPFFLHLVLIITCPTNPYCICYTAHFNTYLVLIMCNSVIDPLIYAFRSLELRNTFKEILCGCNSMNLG
Sequence of Melanocortin receptor 5 (Mus musculus) (P41149 whole entry): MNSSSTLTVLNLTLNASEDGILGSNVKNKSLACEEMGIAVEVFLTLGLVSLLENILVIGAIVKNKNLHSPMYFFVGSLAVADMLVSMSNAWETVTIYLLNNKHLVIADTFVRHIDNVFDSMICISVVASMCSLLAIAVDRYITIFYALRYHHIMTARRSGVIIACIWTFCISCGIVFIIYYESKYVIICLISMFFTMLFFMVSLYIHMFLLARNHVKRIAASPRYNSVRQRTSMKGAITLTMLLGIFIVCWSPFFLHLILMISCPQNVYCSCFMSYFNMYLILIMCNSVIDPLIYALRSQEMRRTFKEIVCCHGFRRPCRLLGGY
Sequence of Melanocortin receptor 5 (P41149 whole entry): as above
Sequence of Melanocyte-stimulating hormone receptor (Q01727 whole entry): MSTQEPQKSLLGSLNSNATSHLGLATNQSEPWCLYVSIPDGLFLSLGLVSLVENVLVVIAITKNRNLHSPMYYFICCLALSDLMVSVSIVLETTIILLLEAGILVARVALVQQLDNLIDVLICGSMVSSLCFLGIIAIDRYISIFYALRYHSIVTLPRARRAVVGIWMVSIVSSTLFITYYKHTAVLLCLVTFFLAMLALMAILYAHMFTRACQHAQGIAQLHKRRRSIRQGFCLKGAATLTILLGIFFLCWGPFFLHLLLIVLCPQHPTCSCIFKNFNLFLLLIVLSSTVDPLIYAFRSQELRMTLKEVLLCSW

Structure (SMILES)	Activity [1]	other results
N=C(N)NCCCC(NC(=O)[C@@H](Cc1ccccc1)NC(=O)[C@H](Cc1cnc[nH]1)NC(=O)/C=C/c1ccc([N+](=O)[O-])cc1)C(N)=O (single isomer, unassigned)	inactive	Activity [2]: inactive
N=C(N)NCCCC(NC(=O)[C@@H](Cc1ccccc1)NC(=O)[C@H](Cc1cnc[nH]1)NC(=O)CCC(=O)c1ccc(F)cc1)C(N)=O (single isomer, unassigned)	inactive	–
CC(=O)N/C(=C\c1ccccc1)C(=O)N[C@@H](Cc1cnc[nH]1)C(=O)N[C@H](Cc1ccccc1)C(=O)NC(CCCNC(=N)N)C(N)=O (single isomer, unassigned)	inactive	Activity [3]: inactive
N=C(N)NCCC[C@@H](NC(=O)[C@@H](Cc1ccccc1)NC(=O)[C@H](Cc1cnc[nH]1)NC(=O)/C=C/c1ccc(F)cc1F)C(N)=O	inactive	–
COc1ccc(/C=C/C(=O)N[C@@H](Cc2cnc[nH]2)C(=O)N[C@H](Cc2ccccc2)C(=O)NC(CCCNC(=N)N)C(N)=O)cc1 (single isomer, unassigned)	inactive	–
N=C(N)NCCCC(NC(=O)[C@@H](Cc1ccccc1)NC(=O)[C@H](Cc1cnc[nH]1)NC(=O)c1ccc2c(c1)OCO2)C(N)=O (single isomer, unassigned)	inactive	–
N=C(N)NCCCC(NC(=O)[C@@H](Cc1ccccc1)NC(=O)[C@H](Cc1cnc[nH]1)NC(=O)CCc1cccc2c1OCO2)C(N)=O (single isomer, unassigned)	inactive	EC50 [6]: 7.28 µM; EC50 (Melanocortin receptor 5): 23 µM; EC50 (Melanocortin receptor 4): 25.5 µM
N=C(N)NCCCC(NC(=O)[C@@H](Cc1ccccc1)NC(=O)[C@H](Cc1cnc[nH]1)NC(=O)CCc1cccnc1)C(N)=O (single isomer, unassigned)	inactive	Activity [2]: inactive
N=C(N)NCCCC(NC(=O)[C@@H](Cc1ccccc1)NC(=O)[C@H](Cc1cnc[nH]1)NC(=O)CCCCc1ccc2c(c1)OCO2)C(N)=O (single isomer, unassigned)	–	Activity [2]: inactive; Activity [3]: inactive

Continued, in another order:

Activity [1]	Structure (SMILES)	other results
inactive	N=C(N)NCCC[C@@H](NC(=O)[C@@H](Cc1ccccc1)NC(=O)[C@H](Cc1cnc[nH]1)NC(=O)/C=C/c1ccc2c(c1)OCO2)C(N)=O	–
inactive	N=C(N)NCCCC(NC(=O)[C@@H](Cc1ccccc1)NC(=O)[C@H](Cc1cnc[nH]1)NC(=O)CCc1cccc(O)c1)C(N)=O (single isomer, unassigned)	Activity [2]: inactive
inactive	N=C(N)NCCCC(NC(=O)[C@@H](Cc1ccccc1)NC(=O)[C@H](Cc1cnc[nH]1)NC(=O)/C(F)=C/c1ccccc1)C(N)=O (single isomer, unassigned)	–
inactive	N=C(N)NCCCC(NC(=O)[C@@H](Cc1ccccc1)NC(=O)[C@H](Cc1cnc[nH]1)NC(=O)CCc1c[nH]cn1)C(N)=O (single isomer, unassigned)	–
inactive	N=C(N)NCCCC(NC(=O)[C@@H](Cc1ccccc1)NC(=O)[C@H](Cc1cnc[nH]1)NC(=O)CCc1ccc(O)cc1)C(N)=O (single isomer, unassigned)	Activity [2]: inactive
inactive	COc1ccccc1/C=C/C(=O)N[C@@H](Cc1cnc[nH]1)C(=O)N[C@H](Cc1ccccc1)C(=O)NC(CCCNC(=N)N)C(N)=O (single isomer, unassigned)	–
inactive	N=C(N)NCCCC(NC(=O)[C@@H](Cc1ccccc1)NC(=O)[C@H](Cc1cnc[nH]1)NC(=O)/C=C/c1ccccc1)C(N)=O (single isomer, unassigned)	Selectivity Index (Mus musculus [4]): 25; Selectivity Index (Mus musculus [5]): 44
inactive	COc1ccc(/C=C\C(=O)N[C@@H](Cc2cnc[nH]2)C(=O)N[C@H](Cc2ccccc2)C(=O)N[C@H](CCCNC(=N)N)C(N)=O)cc1	–
inactive	N=C(N)NCCCC(NC(=O)[C@@H](Cc1ccccc1)NC(=O)[C@H](Cc1cnc[nH]1)NC(=O)CCC(=O)c1ccccc1)C(N)=O (single isomer, unassigned)	–
inactive	N#C/C(=C\c1ccc(O)cc1)C(=O)N[C@@H](Cc1cnc[nH]1)C(=O)N[C@H](Cc1ccccc1)C(=O)NC(CCCNC(=N)N)C(N)=O (single isomer, unassigned)	–
inactive	N=C(N)NCCCC(NC(=O)[C@@H](Cc1ccccc1)NC(=O)[C@H](Cc1cnc[nH]1)NC(=O)c1ccc2cc(O)ccc2c1)C(N)=O (single isomer, unassigned)	Activity [2]: inactive
inactive	N=C(N)NCCCC(NC(=O)[C@@H](Cc1ccccc1)NC(=O)[C@H](Cc1cnc[nH]1)NC(=O)/C=C/c1cccc(O)c1)C(N)=O (single isomer, unassigned)	–
